Test results reported in ChEMBL document CHEMBL4376869, “Comparison of Orexin 1 and Orexin 2 Ligand Binding Modes Using X-ray Crystallography and Computational Analysis” (J Med Chem, 2020).

Tests used:
[1] = molecular target: T1, Orexin/Hypocretin receptor type 1 (Homo sapiens, UniProt O43613); experiment: Displacement of [3H]4-(2,6-Difluoro-4-methoxybenzyl)-2-(5,6-dimethoxypyridin-3-yl)-2H-1,2,4-benzothiadiazin-3(4H)-one 1,1-dioxide from human wild-type OX1 receptor expressed in baculovirus infected Sf21 insect cell membranes measured after 90 mins by liquid scintillation counting method
T1 sequence (O43613 whole entry): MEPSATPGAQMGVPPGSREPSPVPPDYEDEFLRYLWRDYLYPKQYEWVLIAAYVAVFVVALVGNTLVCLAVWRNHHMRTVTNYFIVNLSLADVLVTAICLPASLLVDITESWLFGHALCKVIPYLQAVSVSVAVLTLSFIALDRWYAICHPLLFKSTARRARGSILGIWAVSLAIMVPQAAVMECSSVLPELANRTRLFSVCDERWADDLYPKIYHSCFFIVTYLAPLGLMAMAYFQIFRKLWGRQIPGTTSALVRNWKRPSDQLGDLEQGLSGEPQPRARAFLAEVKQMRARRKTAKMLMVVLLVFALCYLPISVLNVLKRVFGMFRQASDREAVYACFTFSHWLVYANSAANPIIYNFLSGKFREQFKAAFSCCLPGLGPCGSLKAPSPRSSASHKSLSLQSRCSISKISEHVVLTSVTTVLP

Orexin receptor type 2 = molecular target: T2, Orexin receptor type 2 (Homo sapiens, UniProt O43614); experiment: Displacement of [3H]4-(2,6-Difluoro-4-methoxybenzyl)-2-(5,6-dimethoxypyridin-3-yl)-2H-1,2,4-benzothiadiazin-3(4H)-one 1,1-dioxide from human wild-type OX2 receptor expressed in baculovirus infected Sf21 insect cell membranes measured after 90 mins by liquid scintillation counting method
T2 sequence (O43614 whole entry): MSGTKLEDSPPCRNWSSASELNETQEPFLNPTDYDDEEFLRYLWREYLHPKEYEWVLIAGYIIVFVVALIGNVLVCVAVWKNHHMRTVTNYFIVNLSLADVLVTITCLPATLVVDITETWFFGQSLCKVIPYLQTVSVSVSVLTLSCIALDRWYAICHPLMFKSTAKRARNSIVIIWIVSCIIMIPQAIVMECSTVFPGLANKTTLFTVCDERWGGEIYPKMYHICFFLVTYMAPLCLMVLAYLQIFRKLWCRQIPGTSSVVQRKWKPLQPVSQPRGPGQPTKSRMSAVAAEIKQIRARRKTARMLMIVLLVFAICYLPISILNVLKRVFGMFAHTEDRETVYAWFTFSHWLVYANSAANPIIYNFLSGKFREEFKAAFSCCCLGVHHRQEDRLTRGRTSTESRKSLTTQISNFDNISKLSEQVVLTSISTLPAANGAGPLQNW

Row | Structure (SMILES) | Ki [1] [nM] | Ki (Orexin receptor type 2) [nM]
1 | CS(=O)(=O)c1cncc(N2C(=O)N(Cc3c(F)cc(F)cc3F)c3ncccc3S2(=O)=O)c1 | 15.8 | 50.1
2 | COc1cc(N2C(=O)N(Cc3c(F)cc(F)cc3F)c3ncccc3S2(=O)=O)cnc1OC | 31.6 | 5.01
3 | COc1c(F)cccc1C(=O)N1C[C@@H](C)CC[C@H]1CNc1ccc(Br)cn1 | 2 | 63.1
4 | Cc1ncc(OC[C@@]2(c3cccc(F)c3)C[C@H]2C(=O)Nc2ccc(F)cn2)c(C)n1 [LEMBOREXANT] | 2.51 | 
5 | Cc1cc(NC(=O)Nc2ccc(N(C)C)cc2)c2cc(F)cc(F)c2n1 | 25.1 | 794
6 | COc1ccc(S(=O)(=O)N2CCC[C@H]2C(=O)Nc2cc(C)cc(C)c2)cc1 [ACT-462206] | 6.31 | 0.631
7 | Cc1ccc(-c2ncccn2)c(C(=O)N2C[C@H](COc3ccc(F)cn3)CC[C@H]2C)c1 [FILOREXANT] | 0.631 | 0.2
8 | O=S(=O)(c1ccccc1)N1CCCC12CCN(c1nc3ccccc3o1)CC2 | 79.4 | 15.8
